Test results: patent US11352340B2, “Pyridine and pyridimine compounds as PI3K-gamma inhibitors” (Incyte Corporation, priority 2016, dated 2022)
Counter-ions that a name gives are not always drawn. Like-named read-outs stand apart in the source and are kept apart here.

Columns and labels:
[1] = target: PI3Kγ (p110γ) Recombinant Human Protein (Homo sapiens (Human), UniProt P48736); assay: PI3K-γ Scintillation Proximity Assay; format: biochemical; conditions: read-out: PI3K-gamma SPA IC50
Summary of the method: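 Radiometric SPA: reaction at room temperature for 120 min using 2 μM ATP with [γ-33P]ATP tracer, 20 μM PIP2 substrate and 13 nM human PI3Kγ (MOPS pH 6.7, MgCl2, DTT, CHAPS; 2% DMSO). EDTA quench with WGA beads, scintillation count, and IC50 fit of percent-of-control activity.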

[2] = system: Phosphorylated Ribosomal Protein S6 (RPS6) in THP-1 cells; assay: THP-1 RPS6 ELISA Assay; format: cell-based, Human; conditions: MCP-1 stimulated, phospho-RPS6 ELISA, read-out: THP p-RPS6 ELISA IC50
Summary of the method: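 Phospho-RPS6 in lysates measured by ELISA at 450 nm, corrected at 540 nm, after MCP-1 challenge (10 nM, 15 min) of THP-1 cells that were starved overnight and exposed to test compound for 2 h at 37° C, 2×10^5 cells/well. Curve fit of percent inhibition gives IC50.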

[3] = target: PI3Kδ (p110δ/p85α) Recombinant Human Protein (Homo sapiens (Human), UniProt O00329); assay: PI3Kδ Scintillation Proximity Assay; format: biochemical; conditions: read-out: PI3K-delta SPA IC50
Chain of PI3Kδ (p110δ/p85α) Recombinant Human Protein (O00329 whole entry): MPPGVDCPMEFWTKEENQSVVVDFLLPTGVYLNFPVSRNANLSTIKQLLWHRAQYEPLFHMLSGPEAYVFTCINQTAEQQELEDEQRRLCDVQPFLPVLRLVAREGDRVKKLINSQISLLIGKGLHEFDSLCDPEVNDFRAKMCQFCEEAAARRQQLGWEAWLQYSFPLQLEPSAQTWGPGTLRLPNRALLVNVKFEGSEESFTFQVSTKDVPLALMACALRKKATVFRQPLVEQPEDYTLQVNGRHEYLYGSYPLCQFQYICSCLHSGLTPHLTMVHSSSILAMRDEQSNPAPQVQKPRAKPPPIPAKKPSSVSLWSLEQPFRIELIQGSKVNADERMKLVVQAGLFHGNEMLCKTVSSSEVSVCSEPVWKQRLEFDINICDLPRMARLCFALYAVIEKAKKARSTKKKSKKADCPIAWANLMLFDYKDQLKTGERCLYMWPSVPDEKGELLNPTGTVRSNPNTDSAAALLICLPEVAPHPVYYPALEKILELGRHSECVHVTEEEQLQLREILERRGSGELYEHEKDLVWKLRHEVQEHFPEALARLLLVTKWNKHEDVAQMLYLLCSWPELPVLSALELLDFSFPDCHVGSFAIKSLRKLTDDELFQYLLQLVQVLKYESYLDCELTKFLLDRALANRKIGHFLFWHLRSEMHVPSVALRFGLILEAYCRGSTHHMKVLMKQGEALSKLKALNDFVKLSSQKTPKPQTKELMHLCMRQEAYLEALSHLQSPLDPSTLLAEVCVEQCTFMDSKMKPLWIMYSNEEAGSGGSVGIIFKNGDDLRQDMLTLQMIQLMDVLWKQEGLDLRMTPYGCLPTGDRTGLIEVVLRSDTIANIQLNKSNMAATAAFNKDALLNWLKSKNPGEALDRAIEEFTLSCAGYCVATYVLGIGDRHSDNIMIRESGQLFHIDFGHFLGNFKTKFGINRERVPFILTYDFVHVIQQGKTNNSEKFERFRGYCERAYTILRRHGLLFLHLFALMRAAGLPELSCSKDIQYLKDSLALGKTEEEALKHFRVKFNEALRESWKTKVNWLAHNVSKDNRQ
Chain of PI3Kδ (p110δ/p85α) Recombinant Human Protein (P27986 whole entry partner): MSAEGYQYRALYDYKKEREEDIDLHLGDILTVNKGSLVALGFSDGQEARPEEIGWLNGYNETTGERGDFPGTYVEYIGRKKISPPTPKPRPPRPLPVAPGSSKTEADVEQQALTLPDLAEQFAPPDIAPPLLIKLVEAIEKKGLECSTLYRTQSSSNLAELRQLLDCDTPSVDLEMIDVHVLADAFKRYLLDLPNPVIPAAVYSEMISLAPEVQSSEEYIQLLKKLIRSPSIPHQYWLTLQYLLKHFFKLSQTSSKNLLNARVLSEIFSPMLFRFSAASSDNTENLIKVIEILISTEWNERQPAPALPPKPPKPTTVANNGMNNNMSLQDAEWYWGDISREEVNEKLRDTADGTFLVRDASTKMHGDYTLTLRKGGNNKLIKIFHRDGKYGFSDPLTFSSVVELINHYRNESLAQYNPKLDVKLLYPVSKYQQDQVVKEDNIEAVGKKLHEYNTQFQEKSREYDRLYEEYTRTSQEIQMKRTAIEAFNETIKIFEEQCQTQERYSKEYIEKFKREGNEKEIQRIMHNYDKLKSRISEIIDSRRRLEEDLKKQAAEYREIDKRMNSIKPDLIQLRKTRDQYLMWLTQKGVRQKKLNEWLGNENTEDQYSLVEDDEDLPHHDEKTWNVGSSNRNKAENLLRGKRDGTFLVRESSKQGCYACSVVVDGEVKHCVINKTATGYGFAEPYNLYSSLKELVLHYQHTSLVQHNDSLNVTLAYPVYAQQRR
Summary of the method: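 Radiometric read-out: 33P-labelled PIP3 product captured on WGA SPA beads and counted, with IC50 fitted from percent activity relative to DMSO control. Enzyme (3.4 nM) was incubated 120 min at room temperature with 20 μM PIP2 and 2 μM ATP at pH 6.7, 2% DMSO.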

Chain of PI3Kγ (p110γ) Recombinant Human Protein (P48736 whole entry): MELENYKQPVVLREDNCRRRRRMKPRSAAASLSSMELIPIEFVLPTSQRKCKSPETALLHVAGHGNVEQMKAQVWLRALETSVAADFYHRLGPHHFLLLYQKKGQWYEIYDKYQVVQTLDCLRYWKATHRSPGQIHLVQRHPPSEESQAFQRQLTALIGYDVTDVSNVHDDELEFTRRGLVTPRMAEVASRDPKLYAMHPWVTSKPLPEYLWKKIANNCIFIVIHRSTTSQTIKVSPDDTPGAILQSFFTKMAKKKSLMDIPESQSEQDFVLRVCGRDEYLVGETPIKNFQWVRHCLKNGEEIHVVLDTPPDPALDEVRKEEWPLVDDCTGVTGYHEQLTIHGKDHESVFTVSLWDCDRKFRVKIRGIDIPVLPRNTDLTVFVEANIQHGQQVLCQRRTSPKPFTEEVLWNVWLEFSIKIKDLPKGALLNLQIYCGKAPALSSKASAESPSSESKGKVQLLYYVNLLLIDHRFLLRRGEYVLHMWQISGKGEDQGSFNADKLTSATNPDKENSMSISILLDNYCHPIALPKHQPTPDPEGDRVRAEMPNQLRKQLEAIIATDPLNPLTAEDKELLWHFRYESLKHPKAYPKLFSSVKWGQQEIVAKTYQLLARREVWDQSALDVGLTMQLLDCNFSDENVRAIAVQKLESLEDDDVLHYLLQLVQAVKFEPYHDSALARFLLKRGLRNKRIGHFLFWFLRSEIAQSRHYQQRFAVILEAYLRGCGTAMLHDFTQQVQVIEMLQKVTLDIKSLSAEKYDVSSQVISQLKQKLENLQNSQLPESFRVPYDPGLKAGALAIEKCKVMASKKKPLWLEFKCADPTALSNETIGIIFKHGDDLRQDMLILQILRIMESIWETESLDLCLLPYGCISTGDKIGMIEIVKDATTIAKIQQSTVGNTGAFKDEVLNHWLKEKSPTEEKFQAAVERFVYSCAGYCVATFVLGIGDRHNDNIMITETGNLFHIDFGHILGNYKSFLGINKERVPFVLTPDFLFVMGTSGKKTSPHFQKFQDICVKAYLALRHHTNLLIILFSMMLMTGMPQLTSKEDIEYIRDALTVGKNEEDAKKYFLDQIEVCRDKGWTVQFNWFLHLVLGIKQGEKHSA

SMILES	IC50 [1] [nM]	IC50 ([2]; Homo sapiens) [nM]	IC50 [3] [nM]	IC50 [2] [nM]
CCNC(=O)c1nc(-c2cc(-c3cncc(S(C)(=O)=O)c3)ccn2)[nH]c1C [Example 252, N-Ethyl-5-methyl-2-[5-(methylsulfonyl)-3,4′-bipyridin-2′-yl]-1H-imidazole-4-carboxamide trifluoroacetate salt]	≤ 50	≤ 300	≤ 50	
Cc1[nH]c(-c2cc(-c3cncc(S(C)(=O)=O)c3)ccn2)nc1C(=O)NC(C)C [Example 253, N-Isopropyl-5-methyl-2-[5-(methylsulfonyl)-3,4′-bipyridin-2′-yl]-1H-imidazole-4-carboxamide trifluoroacetate salt]	≤ 50	≤ 300	≤ 50	
Cc1[nH]c(-c2cc(-c3cncc(S(C)(=O)=O)c3)ccn2)nc1C(=O)NC1CCOCC1 [Example 254, 5-Methyl-2-[5-(methylsulfonyl)-3,4′-bipyridin-2′-yl]-N-(tetrahydro-2H-pyran-4-yl)-1H-imidazole-4-carboxamide trifluoroacetate salt]	≤ 50	≤ 300	≤ 50	
Cc1[nH]c(-c2cc(-c3cncc(S(C)(=O)=O)c3)ccn2)nc1C(=O)N[C@H]1CCOC1 [Example 255, 5-Methyl-2-[5-(methylsulfonyl)-3,4′-bipyridin-2′-yl]-N-[(3,S)-tetrahydrofuran-3-yl]-lH-imidazole-4-carboxamide trifluoroacetate salt]	≤ 50		≤ 50	300 to 1000
Cc1[nH]c(-c2cc(-c3cncc(S(C)(=O)=O)c3)ccn2)nc1C(=O)N[C@@H]1CCOC1 [Example 256, 5-Methyl-2-[5-(methylsulfonyl)-3,4′-bipyridin-2′-yl]-N-[(3R)-tetrahydrofuran-3-yl]-1H-imidazole-4-carboxamide trifluoroacetate salt]	≤ 50	1000 to 5000	≤ 50	
Cc1[nH]c(-c2cc(-c3cncc(N4CCOCC4)c3)ccn2)nc1C(=O)NC1CCCC1 [Example 258, N-Cyclopentyl-5-methyl-2-(5-morpholin-4-yl-3,4′-bipyridin-2′-yl)-1H-imidazole-4-carboxamide]	≤ 50	≤ 300	≤ 50	
Cc1[nH]c(-c2cc(-c3cncc(N4CCOCC4)c3)ccn2)nc1C(=O)N1CC(C(F)(F)F)C1 [Example 262, 2′-(5-Methyl-4-{[3-(trifluoromethyl)azetidin-1-yl]carbonyl}-1H-imidazol-2-yl)-5-morpholin-4-yl-3,4′-bipyridine]	≤ 50	300 to 1000	≤ 50	
Cc1[nH]c(-c2cc(-c3cncc(N4CCOCC4)c3)ccn2)nc1C(=O)N1CC(NC(=O)OC(C)(C)C)C1 [Example 264, tert-Butyl (1-{[5-methyl-2-(5-morpholin-4-yl-3,4′-bipyridin-2′-yl)-1H-imidazol-4-yl]carbonyl}azetidin-3-yl)carbamate]	≤ 100	1000 to 5000	≤ 50	
Cc1[nH]c(-c2cc(-c3cncc(N4CCOCC4)c3)ccn2)nc1C(=O)NC1CCCCC1 [Example 265, N-Cyclohexyl-5-methyl-2-(5-morpholin-4-yl-3,4′-bipyridin-2′-yl)-1H-imidazole-4-carboxamide]	≤ 50	300 to 1000	≤ 50	
Cc1[nH]c(-c2cc(-c3cncc(N4CCOCC4)c3)ccn2)nc1C(=O)NC(C)(C)C [Example 266, N-(tert-Butyl)-5-methyl-2-(5-morpholin-4-yl-3,4′-bipyridin-2′-yl)-1H-imidazole-4-carboxamide]	≤ 50	≤ 300	≤ 50	
Cc1[nH]c(-c2cc(-c3cncc(N4CCOCC4)c3)ccn2)nc1C(=O)N1CC(C)(C)C1 [Example 267, 2′-{4-[(3,3-Dimethylazetidin-1-yl)carbonyl]-5-methyl-1H-imidazol-2-yl}-5-morpholin-4-yl-3,4′-bipyridine]	≤ 50	1000 to 5000	≤ 50	
Cc1[nH]c(-c2cc(-c3cncc(N4CCOCC4)c3)ccn2)nc1C(=O)NC(C)C [Example 268, N-Isopropyl-5-methyl-2-(5-morpholin-4-yl-3,4′-bipyridin-2′-yl)-1H-imidazole-4-carboxamide trifluoroacetate salt]	≤ 50	300 to 1000	≤ 50	
Cc1[nH]c(-c2cc(-c3cncc(N4CCOCC4)c3)ccn2)nc1C(=O)NC1CCOCC1 [Example 269, 5-Methyl-2-(5-morpholin-4-yl-3,4′-bipyridin-2′-yl)-N-(tetrahydro-2H-pyran-4-yl)-1H-imidazole-4-carboxamide trifluoroacetate salt]	≤ 50	300 to 1000	≤ 50	
Cc1[nH]c(-c2cc(-c3cncc(N4CCOCC4)c3)ccn2)nc1C(=O)N[C@@H]1CCOC1 [Example 270, 5-Methyl-2-(5-morpholin-4-yl-3,4′-bipyridin-2′-yl)-N-[(3R)-tetrahydrofuran-3-yl]-1H-imidazole-4-carboxamide trifluoroacetate salt]	≤ 50	300 to 1000	≤ 50	
Cc1[nH]c(-c2cc(-c3cncc(N4CCOCC4)c3)ccn2)nc1C(=O)N[C@H]1CCOC1 [Example 271, 5-Methyl-2-(5-morpholin-4-yl-3,4′-bipyridin-2′-yl)-N-[(3S)-tetrahydrofuran-3-yl]-1H-imidazole-4-carboxamide trifluoroacetate salt]	≤ 50	300 to 1000	≤ 50	
Cc1[nH]c(-c2cc(-c3cncc(N4CCOCC4)c3)ccn2)nc1C(=O)NCc1ccccc1 [Example 272, N-Benzyl-5-methyl-2-(5-morpholin-4-yl-3,4′-bipyridin-2′-yl)-1H-imidazole-4-carboxamide trifluoroacetate salt]	≤ 50	≤ 300	≤ 50	
Cc1[nH]c(-c2cc(-c3cncc(N4CCOCC4)c3)ccn2)nc1C(=O)N[C@@H](C)c1ccccc1 [Example 273, 5-Methyl-2-(5-morpholin-4-yl-3,4′-bipyridin-2′-yl)-N-[(1S)-1-phenylethyl]-1H-imidazole-4-carboxamide trifluoroacetate salt]	≤ 50	≤ 300	≤ 50	
Cc1[nH]c(-c2cc(-c3cncc(N4CCOCC4)c3)ccn2)nc1C(=O)N[C@H](C)c1ccccc1 [Example 274, 5-Methyl-2-(5-morpholin-4-yl-3,4′-bipyridin-2′-yl)-N-[(1R)-1-phenylethyl]-1H-imidazole-4-carboxamide trifluoroacetate salt]	≤ 50	1000 to 5000	≤ 50	
COC[C@H](NC(=O)c1nc(-c2cc(-c3cncc(N4CCOCC4)c3)ccn2)[nH]c1C)c1ccccc1 [Example 275, N-[(1R)-2-Methoxy-1-phenylethyl]-5-methyl-2-(5-morpholin-4-yl-3,4′-bipyridin-2′-yl) 1H-imidazole-4-carboxamide trifluoroacetate salt]	≤ 50		≤ 50	≤ 300
COC[C@@H](NC(=O)c1nc(-c2cc(-c3cncc(N4CCOCC4)c3)ccn2)[nH]c1C)c1ccccc1 [Example 276, N-[(1S)-2-Methoxy-1-phenylethyl]-5-methyl-2-(5-morpholin-4-yl-3,4′-bipyridin-2′-yl) 1H-imidazole-4-carboxamide trifluoroacetate salt]	≤ 100		≤ 50	≤ 300
Cc1[nH]c(-c2cc(-c3cncc(N4CCOCC4)c3)ccn2)nc1C(=O)NC1C2CC3CC(C2)CC1C3 (stereo not drawn) [Example 278, N-2-Adamantyl-5-methyl-2-(5-morpholin-4-yl-3,4′-bipyridin-2′-yl)-1H-imidazole-4-carboxamide trifluoroacetate salt]	≤ 50	300 to 1000	≤ 50	
Cc1[nH]c(-c2cc(-c3cncc(N4CCOCC4)c3)ccn2)nc1C(=O)N[C@H]1CCN(Cc2ccccc2)C1 [Example 279, N-[(3S)-1-Benzylpyrrolidin-3-yl]-5-methyl-2-(5-morpholin-4-yl-3,4′-bipyridin-2′-yl)-1H-imidazole-4-carboxamide trifluoroacetate salt]	≤ 100	≤ 300	≤ 50	
Cc1[nH]c(-c2cc(-c3cncc(N4CCOCC4)c3)ccn2)nc1C(=O)NC1CCSCC1 [Example 281, 5-Methyl-2-(5-morpholin-4-yl-3,4′-bipyridin-2′-yl)-N-(tetrahydro-2H-thiopyran-4-yl)-1H-imidazole-4-carboxamide trifluoroacetate salt]	≤ 50	≤ 300	≤ 50	
Cc1[nH]c(-c2cc(-c3cncc(N4CCOCC4)c3)ccn2)nc1C(=O)NC1Cc2ccccc2C1 [Example 282, N-(2,3-Dihydro-1H-inden-2-yl)-5-methyl-2-(5-morpholin-4-yl-3,4′-bipyridin-2′-yl)-1H-imidazole-4-carboxamide trifluoroacetate salt]	≤ 50	300 to 1000	≤ 50	
